Legend:
[1] = test system: serotonin reuptake; conditions: cited from earlier work
[2] = test system: dopamine reuptake; conditions: cited from earlier work
[3] = test system: static allodynia in the CCI rat model; test: Static allodynia (von Frey hairs) in the chronic constriction injury (CCI) rat model of neuropathic pain; assay type: in vivo; conditions: CCI rats; for paw withdrawal threshold (PWT), reversal compared to the vehicle treated group: single administration, peak effect 1 h post administration, median [LQ;UQ], 6 rats per group, CCI baseline 2 g; for anti-allodynic effect following single administration: static allodynia, (S,S)-reboxetine 1-3-10-30 mg/kg IP, Compound A 3-10-30 mg/kg SC
Method: Male Sprague Dawley rats (175-200 g at time of surgery), obtained from Charles River, Margate, U.K.) were housed in groups of 3-6. All animals were kept under a 12 h light/dark cycle (lights on at 07 h 00 min) with food and water ad libitum. All experiments were carried out by an observer blind to drug treatments. Animals were placed in an anaesthetic chamber and anaesthetised with a 2% isofluorane O2 mixture. The right hind thigh is shaved and swabbed with 1% iodine. Animals were then transferred to a homeothermic blanket for the duration of the procedure and anaesthesia maintained during surgery via a nose cone. The skin was cut along the line of the thigh bone. The common sciatic nerve was exposed at the middle of the thigh by blunt dissection through biceps femoris. Proximal to the sciatic trifurcation, about 7 mm of nerve was freed by inserting forceps under the nerve and the nerve gently lifted out of the thigh. The forceps were gently opened and closed several times to aid clearance of the fascia from the nerve. Suture was pulled under the nerve using forceps and tied in a simple knot until slight resistance was felt and then double knotted. The procedure was repeated until 4 ligatures (4-0 silk) were tied loosely around the nerve with approx 1 mm spacing. The incision was closed in layers and the wound treated with topical antibiotics. Animals were habituated to test cages prior to the assessment of allodynia. Static allodynia was evaluated by application of von Frey hairs (Stoelting, Wood Dale, Ill., USA) in ascending order of force (0.7, 1.2, 1.4, 2, 4, 6, 8, 10, 15 and 26 grams) to the plantar surface of hind paws. […] Once a withdrawal response to a von Frey hair was established, the paw was re-tested, starting with the filament below the one that produced a withdrawal, and subsequently with the remaining filaments in descending force sequence until no withdrawal occurred. The highest force of 26 g lifted the paw as well as eliciting a response, thus represented the cut off point. Each animal had both hind paws tested in this manner. The lowest amount of force required to elicit a response was recorded as paw withdrawal threshold (PWT) in grams. Static allodynia was defined as present if animals responded to a stimulus of, or less than, 4 g, which is innocuous in normal rats. […] Static allodynia was graphically represented as median [LQ;UQ] in a logarithmic scale and data analysed by Kruskall-Wallis test for non-parametric results, followed by Mann-Whitney's U test vs vehicle group for each time point, using Prism Software version 3 (GraphPad, San Diego, USA). […] Data are the peak effects (1 h post administration) for each compound and doses expressed as median [LQ; […] In this specific case it corresponds to the Compound A dose-response line.

[4] = test system: norepinephrine reuptake; conditions: as disclosed in WO-A-01/01973; cited from earlier work

| SMILES | serotonin reuptake inhibition [1] | dopamine reuptake inhibition [2] | paw withdrawal threshold (PWT), reversal compared to the vehicle treated group ([3]; 30 mg/kg IP (free base)) | anti-allodynic effect following single administration [3] | selectivity for the inhibition of norepinephrine reuptake over the inhibition of serotonin reuptake [4] | paw withdrawal threshold (PWT), reversal compared to the vehicle treated group ([3]; 30 mg/kg SC) |
| --- | --- | --- | --- | --- | --- | --- |
| CCOc1ccccc1OC(c1ccccc1)C1CNCCO1 (racemic) [Reboxetine, (R,R/S,S)-(2-[(2-ethoxyphenoxy)(phenyl)methyl]morpholine)] | only marginal serotonin reuptake inhibition | no dopamine reuptake inhibition |  |  |  |  |
| CCOc1ccccc1O[C@@H](c1ccccc1)[C@@H]1CNCCO1 [(S,S)-reboxetine] |  |  | 6 g | dose dependent anti-allodynic effect | greatly enhanced selectivity |  |
| CCCOc1ccc(S(=O)(=O)N2CCN(CC)CC2)cc1-c1nc2c(CC)n(Cc3ccccn3)nc2c(=O)[nH]1 [Compound A, 3-ethyl-5-[5-(4-ethylpiperazin-1-ylsulphonyl)-2-n-propoxyphenyl]-2-(pyridin-2-yl)methyl-2,6-dihydro-7H-pyrazolo[4,3-d]pyrimidin-7-one] |  |  |  | dose dependent anti-allodynic effect |  | 6 g |

— patent US20090227562A1, “Combination of a Selective Noradrenaline Reuptake Unhibitor and a PDEV Inhibitor” (Pfizer Inc., priority 2004, published 2009)
